Laboratory results: US8877748B2, “Heterocyclic fused anthraquinone derivatives, manufacturing method and pharmaceutical composition using thereof” (National Defense Medical Center, priority 2012, dated 2014)

Columns and labels:
[1] = test system: PC-3 prostate cancer cell line; experiment: SRB assay cell viability, PC-3 prostate cancer cell line; type: cell-based, human; conditions: PC-3 prostate cancer cell line, Table II prints no unit, μM printed, read-out: SRB assay: 50% inhibition of cancer cell proliferation of sample concentration (IC50) of PC-3 prostate cancer cell line
CCRF-CEM = experiment: NCI screening platform one-dose single concentration screening, leukemia CCRF-CEM; type: cell-based, human; conditions: 10 μM
HL-60, TB = experiment: NCI one-dose screening, leukemia HL-60, TB; type: cell-based, human; conditions: 10 μM
MOLT-4 = experiment: NCI one-dose screening, leukemia MOLT-4; type: cell-based, human; conditions: 10 μM
SR = experiment: NCI one-dose screening, leukemia SR; type: cell-based, human; conditions: 10 μM
PRMI-8226 cell line = experiment: NCI one-dose screening, leukemia PRMI-8226; type: cell-based, human; conditions: 10 μM
K562cell line = experiment: NCI one-dose screening, leukemia K562; type: cell-based, human; conditions: 10 μM
HOP-62 = experiment: NCI one-dose screening, non-small cell lung cancer HOP-62; type: cell-based, human; conditions: 10 μM
HOP-92 = experiment: NCI one-dose screening, non-small cell lung cancer HOP-92; type: cell-based, human; conditions: 10 μM
NCI-H23 = experiment: NCI one-dose screening, non-small cell lung cancer NCI-H23; type: cell-based, human; conditions: 10 μM
NCI-H322M = experiment: NCI one-dose screening, non-small cell lung cancer NCI-H322M; type: cell-based, human; conditions: 10 μM; Non-small cell lung cancer
NCI-H460 = experiment: NCI one-dose screening, non-small cell lung cancer NCI-H460; type: cell-based, human; conditions: 10 μM
NCI-H522 = experiment: NCI one-dose screening, non-small cell lung cancer NCI-H522; type: cell-based, human; conditions: 10 μM
A549/ATCC = experiment: NCI one-dose screening, non-small cell lung cancer A549/ATCC; type: cell-based, human; conditions: 10 μM
COLO 205 = experiment: NCI one-dose screening, colon cancer COLO 205; type: cell-based, human; conditions: 10 μM
HCC-2998 = experiment: NCI one-dose screening, colon cancer HCC-2998; type: cell-based, human; conditions: 10 μM
HCT-116 = experiment: NCI one-dose screening, colon cancer HCT-116; type: cell-based, human; conditions: 10 μM
HCT-15 = experiment: NCI one-dose screening, colon cancer HCT-15; type: cell-based, human; conditions: 10 μM
KM12 = experiment: NCI one-dose screening, colon cancer KM12; type: cell-based, human; conditions: 10 μM
HT29 = experiment: NCI one-dose screening, colon cancer HT29; type: cell-based, human; conditions: 10 μM
SF-268 = experiment: NCI one-dose screening, CNS cancer SF-268; type: cell-based, human; conditions: 10 μM
SF-295 = experiment: NCI one-dose screening, CNS cancer SF-295; type: cell-based, human; conditions: 10 μM
SF-539 = experiment: NCI one-dose screening, CNS cancer SF-539; type: cell-based, human; conditions: 10 μM
SNB-19 = experiment: NCI one-dose screening, CNS cancer SNB-19; type: cell-based, human; conditions: 10 μM
SNB-75 = experiment: NCI one-dose screening, CNS cancer SNB-75; type: cell-based, human; conditions: 10 μM
U251 = experiment: NCI one-dose screening, CNS cancer U251; type: cell-based, human; conditions: 10 μM
LOX IMVI = experiment: NCI one-dose screening, melanoma LOX IMVI; type: cell-based, human; conditions: 10 μM
MALME-3M = experiment: NCI one-dose screening, melanoma MALME-3M; type: cell-based, human; conditions: 10 μM
M14 = experiment: NCI one-dose screening, melanoma M14; type: cell-based, human; conditions: 10 μM
UACC-62 = experiment: NCI one-dose screening, melanoma UACC-62; type: cell-based, human; conditions: 10 μM
UACC-257 = experiment: NCI one-dose screening, melanoma UACC-257; type: cell-based, human; conditions: 10 μM
SK-MEL-2 = experiment: NCI one-dose screening, melanoma SK-MEL-2; type: cell-based, human; conditions: 10 μM
SK-MEL-28 = experiment: NCI one-dose screening, melanoma SK-MEL-28; type: cell-based, human; conditions: 10 μM
SK-MEL-5 = experiment: NCI one-dose screening, melanoma SK-MEL-5; type: cell-based, human; conditions: 10 μM
IGROV1 = experiment: NCI one-dose screening, ovarian cancer IGROV1; type: cell-based, human; conditions: 10 μM
OVCAR-3 = experiment: NCI one-dose screening, ovarian cancer OVCAR-3; type: cell-based, human; conditions: 10 μM
OVCAR-4 = experiment: NCI one-dose screening, ovarian cancer OVCAR-4; type: cell-based, human; conditions: 10 μM
OVCAR-5 = experiment: NCI one-dose screening, ovarian cancer OVCAR-5; type: cell-based, human; conditions: 10 μM
OVCAR-8 = experiment: NCI one-dose screening, ovarian cancer OVCAR-8; type: cell-based, human; conditions: 10 μM
SK-OV-3 = experiment: NCI one-dose screening, ovarian cancer SK-OV-3; type: cell-based, human; conditions: 10 μM
786-O = experiment: NCI one-dose screening, renal cancer 786-O; type: cell-based, human; conditions: 10 μM
CAKI-1 = experiment: NCI one-dose screening, renal cancer CAKI-1; type: cell-based, human; conditions: 10 μM
[2] = NCI one-dose screening, renal cancer A489; type: cell-based, human; conditions: 10 μM
ACHN = experiment: NCI one-dose screening, renal cancer ACHN; type: cell-based, human; conditions: 10 μM
SN12C = experiment: NCI one-dose screening, renal cancer SN12C; type: cell-based, human; conditions: 10 μM
TK-10 = experiment: NCI one-dose screening, renal cancer TK-10; type: cell-based, human; conditions: 10 μM
UO-31 = experiment: NCI one-dose screening, renal cancer UO-31; type: cell-based, human; conditions: 10 μM
RXF, 393 = experiment: NCI one-dose screening, renal cancer RXF, 393; type: cell-based, human; conditions: 10 μM
DU145 = experiment: NCI one-dose screening, prostate cancer DU145; type: cell-based, human; conditions: 10 μM
MCF7 = experiment: NCI one-dose screening, breast cancer MCF7; type: cell-based, human; conditions: 10 μM
HS 578-T = experiment: NCI one-dose screening, breast cancer HS 578-T; type: cell-based, human; conditions: 10 μM; Breast cancer
MDA-MB-231/ATCC = experiment: NCI one-dose screening, breast cancer MDA-MB-231/ATCC; type: cell-based, human; conditions: 10 μM
MDA-MB-468 = experiment: NCI one-dose screening, breast cancer MDA-MB-468; type: cell-based, human; conditions: 10 μM
NCl/ADR-RES = experiment: NCI one-dose screening, breast cancer NCl/ADR-RES; type: cell-based, human; conditions: 10 μM; listed under Ovarian cancer
T-47D = experiment: NCI one-dose screening, breast cancer T-47D; type: cell-based, human; conditions: 10 μM
MDA, -MB-435 = experiment: NCI one-dose screening, breast cancer MDA, -MB-435; type: cell-based, human; conditions: 10 μM; listed under Melanoma
human tumor cell lines = experiment: NCI one-dose screening, Mean / Delta / Range of growth percent over all tested cell lines; type: cell-based; conditions: 10 μM

Compound: O=C1c2ccccc2C(=O)c2c1ccc1nsnc21 [C1, Anthraquinone[2,1-c][1,2,5]thiadiazol-6,11-dione]
- IC50 [1]: 2.5 µM
- Growth Percent CCRF-CEM (CCRF-CEM): −30.81%
- Growth Percent HL-60(TB) (HL-60, TB): −21.77%
- Growth Percent MOLT-4 (MOLT-4): −40.09%
- Growth Percent SR (SR): 4.96%
- Growth Percent RPMI-8226 (PRMI-8226 cell line): −27.97%
- Growth Percent K562 (K562cell line): 49.61%
- Growth Percent HOP-62 (HOP-62): 103.18%
- Growth Percent HOP-92 (HOP-92): −100.00%
- Growth Percent NCI-H23 (NCI-H23): 97.80%
- Growth Percent NCI-H322M (NCI-H322M): 16.07%
- Growth Percent NCI-H460 (NCI-H460): 125.82%
- Growth Percent NCI-H522 (NCI-H522): 77.41%
- Growth Percent A549/ATCC (A549/ATCC): 104.19%
- Growth Percent COLO 205 (COLO 205): 111.54%
- Growth Percent HCC-2998 (HCC-2998): −0.74%
- Growth Percent HCT-116 (HCT-116): −50.00%
- Growth Percent HCT-15 (HCT-15): 1.48%
- Growth Percent KM12 (KM12): 98.60%
- Growth Percent HT29 (HT29): 116.95%
- Growth Percent SF-268 (SF-268): 16.29%
- Growth Percent SF-295 (SF-295): 126.17%
- Growth Percent SF-539 (SF-539): −47.11%
- Growth Percent SNB-19 (SNB-19): 78.98%
- Growth Percent SNB-75 (SNB-75): 79.03%
- Growth Percent U251 (U251): −89.26%
- Growth Percent LOX IMVI (LOX IMVI): −50.63%
- Growth Percent MALME-3M (MALME-3M): −71.64%
- Growth Percent M14 (M14): 74.54%
- Growth Percent UACC-62 (UACC-62): −82.32%
- Growth Percent UACC-257 (UACC-257): −83.07%
- Growth Percent SK-MEL-2 (SK-MEL-2): −73.16%
- Growth Percent SK-MEL-28 (SK-MEL-28): 15.47%
- Growth Percent SK-MEL-5 (SK-MEL-5): 8.52%
- Growth Percent IGROV1 (IGROV1): −88.34%
- Growth Percent OVCAR-3 (OVCAR-3): −15.47%
- Growth Percent OVCAR-4 (OVCAR-4): −94.43%
- Growth Percent OVCAR-5 (OVCAR-5): −20.07%
- Growth Percent OVCAR-8 (OVCAR-8): −10.07%
- Growth Percent SK-OV-3 (SK-OV-3): 100.70%
- Growth Percent 786-0 (786-O): −25.98%
- Growth Percent CAKI-1 (CAKI-1): 1.97%
- Growth Percent A498 [2]: 130.09%
- Growth Percent ACHN (ACHN): −94.31%
- Growth Percent SN12C (SN12C): −73.27%
- Growth Percent TK-10 (TK-10): 96.99%
- Growth Percent UO-31 (UO-31): −79.30%
- Growth Percent RXF 393 (RXF, 393): 20.11%
- Growth Percent DU145 (DU145): 40.76%
- Growth Percent MCF7 (MCF7): −50.74%
- Growth Percent HS 578T (HS 578-T): 7.40%
- Growth Percent MDA-MB-231/ATCC (MDA-MB-231/ATCC): −17.33%
- Growth Percent MDA-MB-468 (MDA-MB-468): −73.17%
- Growth Percent NCI/ADR-RES (NCl/ADR-RES): −2.53%
- Growth Percent T-47D (T-47D): −45.52%
- Growth Percent MDA-MB-435 (MDA, -MB-435): −87.88%
- Growth Percent Delta (human tumor cell lines; delta over all cell lines): 102.68%
- Growth Percent Mean (human tumor cell lines; mean over all cell lines): 2.68%
- Growth Percent Range (human tumor cell lines; range over all cell lines): 230.09%
